Measured values as given in patent US7192918B2, “Tripeptide and tetrapeptide sulfones” (Telik, Inc., priority 2005, dated 2007).
Entries after “also recorded” stand apart in the source; their conditions may differ.

How the values were obtained:
HL-60 cells [1] = assay: Enhancement of differentiation of HL-60 cells (CD11b surface expression, flow cytometry); format: cell-based, human; conditions: diethyl esters, 24 hours
Protocol: Some of the diethyl ester compounds of this invention were also tested for their ability to enhance the differentiation of HL-60 cells. This illustrates the beneficial effect of the compounds of this invention in stimulating differentiation of the HL-60 human leukemia cell line in vitro. […] The cells were harvested by centrifugation (1250 rpm for 5 min at 20° C.) and washed with 2 mL ice-cold phosphate-buffered saline (PBS) containing 2% FBS, then stained with 10 μL phycoerythrin-conjugated anti-CD11b antibody or 10 μL phycoerythrin-conjugated isotype control antibody. After standing for 30 min on ice, the cells were re-suspended in 2 mL ice-cold PBS containing 2% FBS. The cells were harvested by centrifugation (1250 rpm for 5 min at 20° C.) and resuspended in 0.4 mL PBS containing 2% FBS. The specific cell surface expression of CD11b, a marker for granulocytes and monocytes, was detected by flow cytometry using a FACSCalibur analyzer (BD Biosciences). All assays were conducted in triplicate, with DMSO control. The extent of differentiation was expressed as a multiple of the signal from the DMSO control.

HL-60 cells [2] = conditions: background statement; cited from earlier work
[3] = both in vitro and in vivo; cited from earlier work
[4] = Phase II, interim results; cited from earlier work
[5] = target: T1, Recombinant human GST P1-1 (Homo sapiens, UniProt P09211); assay: Inhibition of glutathione S-transferase isoenzyme GST P1-1 (CDNB/GSH, absorbance at 340 nm); format: biochemical; conditions: diacids (row number n = compound nA), pH 6.5, 2% DMSO
T1 construct: purchased EMD Biosciences, Inc., San Diego, Calif., U.S.A
Protocol: (§1) In vitro Example 1. Inhibition of glutathione S-transferase isoenzymes. […] For each assay, the test compound and GSH were added to the isoenzyme. Immediately after the addition of CDNB solution to the isoenzyme/compound/GSH solution, the absorbance at 340 nm was recorded continuously for 5 min on a SpectraMax plate reader (Molecular Devices, Inc., Sunnyvale, Calif., U.S.A.). The GST inhibitory activity of each compound was calculated from the slopes of the absorbance/time curves at the various concentrations of test compound. All assays were conducted in duplicate wells, with DMSO control, with the final DMSO concentration maintained at 2%.

[6] = target: T2, Recombinant human GST A1-1 (Homo sapiens, UniProt P08263); assay: Inhibition of glutathione S-transferase isoenzyme GST A1-1 (CDNB/GSH, absorbance at 340 nm); format: biochemical; conditions: diacids (row number n = compound nA), pH 6.5, 2% DMSO
T2 construct: purchased EMD Biosciences, Inc., San Diego, Calif., U.S.A
T2 sequence (P08263 1-222): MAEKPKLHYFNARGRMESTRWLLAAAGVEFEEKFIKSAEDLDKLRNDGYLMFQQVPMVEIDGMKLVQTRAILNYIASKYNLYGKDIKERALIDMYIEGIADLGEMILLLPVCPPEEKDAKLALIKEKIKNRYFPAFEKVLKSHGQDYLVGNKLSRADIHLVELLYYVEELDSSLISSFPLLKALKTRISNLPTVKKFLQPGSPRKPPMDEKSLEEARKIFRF
Protocol: as §1

[7] = target: T3, Recombinant human GST M1-1 (Homo sapiens, UniProt P09488); assay: Inhibition of glutathione S-transferase isoenzyme GST M1-1 (CDNB/GSH, absorbance at 340 nm); format: biochemical; conditions: diacids (row number n = compound nA), pH 6.5, 2% DMSO
T3 construct: purchased EMD Biosciences, Inc., San Diego, Calif., U.S.A
T3 sequence (P09488 2-218 limits assumed): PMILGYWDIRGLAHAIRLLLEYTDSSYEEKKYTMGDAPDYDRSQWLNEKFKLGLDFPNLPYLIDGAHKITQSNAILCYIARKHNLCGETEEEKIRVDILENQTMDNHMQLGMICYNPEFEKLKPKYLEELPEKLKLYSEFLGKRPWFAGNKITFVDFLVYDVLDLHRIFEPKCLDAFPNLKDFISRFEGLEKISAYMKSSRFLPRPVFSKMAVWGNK
Protocol: as §1

T1 sequence (P09211 2-210 limits assumed): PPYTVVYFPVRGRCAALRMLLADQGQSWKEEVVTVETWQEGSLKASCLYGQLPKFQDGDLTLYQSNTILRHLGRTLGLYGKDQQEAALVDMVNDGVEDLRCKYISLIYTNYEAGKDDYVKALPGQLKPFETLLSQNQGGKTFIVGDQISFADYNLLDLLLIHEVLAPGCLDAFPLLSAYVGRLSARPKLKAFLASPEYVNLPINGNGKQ

| SMILES | Differentiation of HL-60 cells (CD11b expression as multiple of DMSO control) (HL-60 cells [1]) | Differentiation of HL-60 promyelocytic leukemia cells in vitro (HL-60 cells [2]) | Potentiation of the activity of cytotoxic agents [3] | Hematologic response in humans [4] | Tolerability in MDS patients [4] | IC50 [5] | IC50 [6] | IC50 [7] |
| --- | --- | --- | --- | --- | --- | --- | --- | --- |
| CCOC(=O)[C@@H](N)CCC(=O)N[C@@H](CSCc1ccccc1)C(=O)N[C@@H](C(=O)OCC)c1ccccc1 [TLK199] | enhances differentiation | induce the differentiation of HL-60 promyelocytic leukemia cells | chemopotentiation activity in an animal model | myelostimulant activity in humans; also recorded: multilineage hematologic improvement | well tolerated | – | – | – |
| N[C@@H](CCC(=O)N[C@@H](CS(=O)(=O)Cc1ccc([N+](=O)[O-])o1)C(=O)N[C@@H](C(=O)O)c1ccccc1)C(=O)O [Compound 14A, L-γ-glutamyl-3-[(5-nitrofuran-2-ylmethyl)sulfonyl]-L-alanyl-D-phenylglycine] | – | – | – | – | – | 3.2 µM | 52 µM | 100 µM |
